Assay results from US11008325B2, “Inhibitors of cancer invasion, attachment, and/or metastasis” (VIRGINIA COMMONWEALTH UNIVERSITY, priority 2016, dated 2021).

Legend:
[1] = tested on: HBMEC barrier over GBM6 cells; test: HBMEC transwell blood brain barrier surrogate assay; format: in vitro ADME, human; details: 50 μM PDZ1i, 24 h, read out as GBM6 invasion
Procedure: FIG. 12. PDZ1i crosses the blood brain barrier (BBB). Primary human malignant glioma cells (GBM6) were seeded on the bottom well of a transwell chamber. In the top chamber, a monolayer of HBMEC cells separated GBM6 cells from media containing DMSO, 50 μM PDZ1i or Temozolomide (500 μM). After 24 h incubation in these conditions, invasion of GBM6 cells were analyzed by seeding in a trans-well Matrigel invasion assay and stained after 24 h. NB: PDZ1i treatment and invasion assay without HBMEC barrier. Error bars=f s.d.
A critical property of a potential therapeutic agent is its stability in the circulation and bioavailability in vivo. […] Additionally, when treating glioma pharmaceutically, the ability for a compound to cross the blood brain barrier (BBB) is paramount. […] Prior to in vivo efficacy studies, we evaluated the ability of the compound to cross the blood brain barrier using a target-based surrogate cellular assay. This method is preferred to direct in vivo measurements of compound concentration in the brain because of low sensitivity of the detection methods, and most importantly because of the presence of drug in various vascular spaces, i.e., the residual blood of the brain. […] After 24 h, we assessed the invasive ability of the treated GBM6 cells compared to pretreated controls. […]

B16 cells = test: B16 experimental lung metastasis; format: in vivo, C57BL/6 mice; details: repeated treatment I.P., 30 and 50 mg/kg, 6 injections
Procedure: FIG. 57. PDZ1in (113B7) treatment results in marked reduction of B16 experimental lung metastases. C57BU6 mice were inoculated I.V. with B16 cells ([…]) to generate experimental lung metastases. One day after I.V. injection, mice received 30 and 50 mg/kg b.w. PDZ1i I.P. 3× a week for the first two weeks (total 6 injections). After 21 days, mice were sacrificed and lungs were collected, fixed with formalin and examined for nodules. Representative lungs with tumor metastases are shown.
Preliminary studies were performed to determine if administering PDZ1ln (113B7) would affect experimental metastasis. B16, a highly aggressive metastatic mouse melanoma, was intravenously injected resulting in lung nodules within 3 weeks. […] This experiment confirms that treatment with PDZ1in targeting MDA-9/Syntenin can directly prevent formation of lung metastases in vivo.

[2] = tested on: PDZ domain from X11/mint scaffold protein; test: NMR [15N,1H] HSQC counter screen; format: binding; details: 20 μM protein, 100 μM 113B7
Procedure: FIGS. 4A-4E. FIG. 4A. Chemical structures of the two initial fragment hits (top) and the structure of the resulting molecule 113B7 (PDZ1i). FIG. 4B. Superposition of 2D [^15N, ^1H]-HSQC spectra of 50 μM MDA-9 PDZ12 tandem domain in the absence and presence of 350 μM 113B7. FIG. 4C. Binding curve and representative spectra for the titration of 113B7 against MDA-9 PDZ12 tandem domain. Top: Zoom of box region in FIG. 4B after titrating 113B7 into Mda9 PDZ, tandem domain. The cross peak corresponding to the backbone amide of residue A147 experiences a gradual shift upon the addition of 113B7. Bottom: Titration curve of 113B7 for residue A147. The dissociation constant for the binding of 113B7 to MDA-9 was calculated to be 21.37±8.62 μM. FIG. 4D. Superposition of 2D [^15N, ^1H]-HSQC spectra of 50 μM PDZ domain from X11/mint scaffold protein ([…]; 33% identity with PDZ1) are shown in absence and in presence of […] 113B7. […] FIG. 4E. Docked structure of 113B7 in complex with MDA-9 PDZ tandem domain (PDB: 1W9E). The pose was obtained with GOLD. Two PDZ domains of MDA-9 are labeled.
FIG. 52. Left panel, Docked structure of compound 113B7 on the surface of MDA-9/Syntenin. The docked structure is supported by NMR chemical shift mapping data. […]

Cc1cc(NC(=O)c2nc3[nH]c4c(c(=O)n3n2)CCC4)c(C)cc1NC(=O)CCc1nnc(-c2ccccc2)o1 [113B7, N-(2,5-dimethyl-4-(3-(5-phenyl-1,3,4-oxadiazol-2-yl)propanamido)phenyl)-8-oxo-5,6,7,8-tetrahydro-4H-cyclopenta[d][1,2,4]triazolo[1,5-a]pyrimidine-2-carboxamide]
crossing of the HBMEC barrier (blood brain barrier surrogate) [1]: effectively crossed the HBMEC barrier | number of lung nodules (B16 cells): significantly reduced the number of lung nodules | binding to X11/mint PDZ domain [2]: No appreciable binding is detected
